Assay results reported in patent publication US20250154686A1, “COMPOUND LIBRARY” (CHUGAI SEIYAKU KABUSHIKI KAISHA, priority 2021, published 2025).

Biological target: T1, Bcl-2 protein (Recombinant Human Bcl-2 Protein) (Homo sapiens, UniProt P10415)
T1 construct: purchased Novus Biologicals NBP2-34889
Experiment: AS-MS evaluation of binding of the Example 4 mixture library (1200 compounds/well) to Bcl-2, ASMS ratio (%)
Protocol: DMSO solutions (prepared into approximately 0.58 mM based on calculation from the average molecular weight of each mixture) of 12 types of mixtures that could each contain 100 compounds, i.e., mixAI-B4J-01, mixAI-B1M-01, mixAI-B1K-01, mixAI-BIO-01, mixAI-B1A-01, mixAI-B3A-01, mixAI-B21-01, mixAI-B2L-01, mixAI-B2N-01, mixAI-B2A-01, mixAI-B2Q-01, and mixAI-B2R-01, shown in Table AI-03-B4J-01, Table AI-03-B1M-01, Table AI-03-B1K-01, Table AI-03-B10-01, Table AI-03-B1A-01, Table AI-03-B3A-01, Table AI-03-B21-01, Table AI-03-B2L-01, Table AI-03-B2N-01, Table AI-03-B2A-01, Table AI-03-B2Q-01, and Table AI-03-B2R-01 described in Example 4, were respectively dispensed to a total of 12 wells of MICROPLATE, 96-well, PP, V-BOTTOM (Greiner Bio-One International GmbH, 651201). 70 nL each from the 12 wells was collected into any one well using LABCYTE ECHO® 555 acoustic dispensing system (Beckman Coulter, Inc.) to prepare a sample solution in a mixed state of 1200 compounds (the presence of 1152 compounds was already identified when the mixtures were prepared in Example 4). Further, Bcl-2 protein (Novus Biologicals, NBP2-34889, Recombinant Human Bcl-2 Protein, Lot E60145051) (19.2 μL) prepared at 20.9 μM in advance using a Tris-HCl buffer (25 mM Tris-HCl, pH 7.4, 150 mM NaCl, 0.025% Tween-20, and 1 mM DTT) was added to the well containing the dispensed 1200 compounds (the presence of 1152 compounds was already identified when the mixtures were prepared in Example 4) (final compound concentration: 20 nM, final Bcl-2 concentration: 20 μM), and the plate was incubated at 23° C. for 1 hour in the dark. Subsequently, 200 μL of an assay buffer (25 mM Tris-HCl, pH 7.4, 150 mM NaCl, 0.025% Tween-20, and 1 mM DTT) was centrifuged three times at 2000×G at 4° C. for 2 minutes using 96-well MacroSpin column, P-2 Material (Harvard Bioscience, Inc., 74-5655) that had been allowed to swell to condition the 96-well MacroSpin column. Subsequently, 20 μL of the sample thus incubated was added to the 96-well MacroSpin column, P-2 Material after the completion of conditioning, and SEC treatment was performed by centrifugation at 2000×G for 2 minutes. 32 μL of a 1:1 mixed solution of acetonitrile and methanol (LC/MS grade, FUJIFILM Wako Pure Chemical Corp.) was added to a flow-through liquid from SEC, and the mixture was centrifuged at 1800×G at 4° C. for 5 minutes. The supernatant was used as analysis sample ASMS (A). By a similar operation, a sample prepared at 1200 compounds/well and supplemented with only a Tris-HCl buffer containing no Bcl-2 protein was incubated under the same conditions as above, and the same organic solvent as above was added thereto without 96-well MacroSpin column treatment. A supernatant obtained by a centrifugation operation was used as STD (B). Next, by a similar operation, a sample prepared at 1200 compounds/well and supplemented with only a Tris-HCl buffer containing no Bcl-2 protein was incubated under the same conditions as above and treated with 96-well MacroSpin column in the same manner as above, and the same organic solvent as above was added thereto. A supernatant obtained by a centrifugation operation was used as BK (C). These samples were measured by reverse-phase LC/MS.
Then, the samples A, B and C were analyzed for the 1200 compounds using TraceFinder 5.1 (Thermo Fisher Scientific Inc.) and CHANCE Software (in-house), and an ASMS ratio (%) was calculated according to the following expression.
Although m/z of the MS peaks was confirmed down to four decimal places, 0 at the decimal level may be omitted in the description in Table AJ-01. For example, “587.0000” is also referred to as “587”, “587.1000” is also referred to as “587.1”, “587.1200” is also referred to as “587.12”, and “587.1230” is also referred to as “587.123”.

[1] = AS-MS, Example 4 mixture library, Bcl-2, replicate n = 1
[2] = AS-MS, Example 4 mixture library, Bcl-2, replicate n = 2
[3] = replicate n = 1, mixture library, value belongs to the MS peak assigned to the compound
[4] = replicate n = 2, mixture library, value belongs to the MS peak assigned to the compound
[5] = AS-MS, mixture of 1200 compounds/well, Bcl-2 protein, replicate n = 1
[6] = AS-MS, mixture of 1200 compounds/well, Bcl-2 protein, replicate n = 2

T1 sequence (P10415 whole entry): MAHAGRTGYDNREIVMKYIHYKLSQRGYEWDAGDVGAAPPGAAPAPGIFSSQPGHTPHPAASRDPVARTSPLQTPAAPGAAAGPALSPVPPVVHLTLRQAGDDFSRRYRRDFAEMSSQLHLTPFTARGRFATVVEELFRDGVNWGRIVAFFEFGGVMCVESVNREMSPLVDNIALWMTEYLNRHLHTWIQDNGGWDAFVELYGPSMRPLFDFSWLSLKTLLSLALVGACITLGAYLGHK

CCOc1cncc(C#Cc2cncc(C(=O)N3CCN(c4ccc(C(=O)NS(=O)(=O)CCC(F)(F)F)cc4)CC3)c2)c1 [Compound B2N032-01, 4-[4-[5-[2-(5-Ethoxypyridin-3-yl)ethynyl]pyridine-3-carbonyl]piperazin-1-yl]-N-(3,3,3-trifluoropropylsulfonyl)benzamide]
ASMS ratio (%) n = 1 [1]: −0.4% | ASMS ratio (%) n = 2 [2]: −1.0%

CCOc1cccc(-c2ccc(CN3CCN(c4ccc(C(=O)NS(C)(=O)=O)cc4)CC3)c3ccccc23)c1 [Compound B2I065-01, 4-[4-[[4-(3-Ethoxyphenyl)naphthalen-1-yl]methyl]piperazin-1-yl]-N-methylsulfonylbenzamide]
ASMS ratio (%) n = 1 [3]: 0.0% | ASMS ratio (%) n = 2 [4]: 0.0%

CCOc1cncc(C#Cc2ccccc2CN2CCN(c3ccc(C(=O)NS(=O)(=O)C(C)(C)C)nn3)CC2)c1 [Compound B2L096-01]
ASMS ratio (%) n = 1 [1]: 0.0% | ASMS ratio (%) n = 2 [2]: 0.0%

CCOc1cccc(-c2ccccc2CCC(=O)N2CCN(c3ccc(C(=O)NS(=O)(=O)C(C)(C)C)cc3)CC2)c1 [Compound B2L033-01, N-tert-Butylsulfonyl-4-[4-[3-[2-(3-ethoxyphenyl)phenyl]propanoyl]piperazin-1-yl]benzamide]
ASMS ratio (%) n = 1 [3]: 0.0% | ASMS ratio (%) n = 2 [4]: 0.0%

CCOc1cccc(-c2cc(CN3CCN(c4ccc(C(=O)NS(=O)(=O)C(C)(C)C)nn4)CC3)cc(C(F)(F)F)c2)c1 [Compound B2L087-01, N-tert-Butylsulfonyl-6-[4-[[3-(3-ethoxyphenyl)-5-(trifluoromethyl)phenyl]methyl]piperazin-1-yl]pyridazine-3-carboxamide]
ASMS ratio (%) n = 1 [1]: 1.9% | ASMS ratio (%) n = 2 [2]: −24.6%

CCOc1cccc(-c2cc(OC)c(CN3CCN(c4ccc(C(=O)NS(C)(=O)=O)nn4)CC3)c(OC)c2)c1 [Compound B2I085-01, 6-[4-[[4-(3-Ethoxyphenyl)-2,6-dimethoxyphenyl]methyl]piperazin-1-yl]-N-methylsulfonylpyridazine-3-carboxamide]
ASMS ratio (%) n = 1 [3]: 0.0% | ASMS ratio (%) n = 2 [4]: 0.0%

CCOc1cncc(-c2cc(CN3CCN(c4ccc(C(=O)NS(C)(=O)=O)cc4)CC3)cc(OC(F)(F)F)c2)c1 [Compound B2I064-01, 4-[4-[[3-(5-Ethoxypyridin-3-yl)-5-(trifluoromethoxy)phenyl]methyl]piperazin-1-yl]-N-methylsulfonylbenzamide]
ASMS ratio (%) n = 1 [3]: 0.0% | ASMS ratio (%) n = 2 [4]: 0.0%

CCOc1cncc(-c2ccc(CN3CCN(c4ccc(C(=O)NS(C)(=O)=O)cc4)CC3)cc2C)c1 [Compound B2I048-01, 4-[4-[[4-(5-Ethoxypyridin-3-yl)-3-methylphenyl]methyl]piperazin-1-yl]-N-methylsulfonylbenzamide]
ASMS ratio (%) n = 1 [3]: 0.0% | ASMS ratio (%) n = 2 [4]: 0.0%

CCOc1cncc(-c2cc(CN3CCN(c4ccc(C(=O)NS(C)(=O)=O)cc4)CC3)cc(C(F)(F)F)c2)c1 [Compound B2I062-01, 4-[4-[[3-(5-Ethoxypyridin-3-yl)-5-(trifluoromethyl)phenyl]methyl]piperazin-1-yl]-N-methylsulfonylbenzamide]
ASMS ratio (%) n = 1 [3]: 0.0% | ASMS ratio (%) n = 2 [4]: 0.0%

CCOc1cncc(-c2cc(CN3CCN(c4ccc(C(=O)NS(=O)(=O)c5ccc(NCCSc6ccccc6)c(C(F)(F)F)c5)cc4)CC3)cc(C(F)(F)F)c2)c1 [Compound B2R062-01, 4-[4-[[3-(5-Ethoxypyridin-3-yl)-5-(trifluoromethyl)phenyl]methyl]piperazin-1-yl]-N-[4-(2-phenylsulfanylethylamino)-3-(trifluoromethyl)phenyl]sulfonylbenzamide]
ASMS ratio (%) n = 1 [1]: 0.0% | ASMS ratio (%) n = 2 [2]: 0.0%

CCOc1cncc(-c2cc(CN3CCN(c4ccc(C(=O)NS(=O)(=O)C(C)(C)C)nn4)CC3)cc(OC(C)C)c2)c1 [Compound B2L084-01, N-tert-Butylsulfonyl-6-[4-[3-(5-ethoxypyridin-3-yl)-5-propan-2-yloxyphenylmethyl]piperazin-1-yl]pyridazine-3-carboxamide]
ASMS ratio (%) n = 1 [1]: −3.0% | ASMS ratio (%) n = 2 [2]: −1.9%

CCOc1cncc(-c2ccc(CN3CCN(c4ccc(C(=O)NS(=O)(=O)C(C)(C)C)nn4)CC3)c3ccccc23)c1 [Compound B2L092-01, N-tert-Butylsulfonyl-6-[4-[[4-(5-ethoxypyridin-3-yl)naphthalen-1-yl]methyl]piperazin-1-yl]pyridazine-3-carboxamide]
ASMS ratio (%) n = 1 [1]: 5.5% | ASMS ratio (%) n = 2 [2]: 7.8%

CCOc1cccc(-c2csc(CN3CCN(c4ccc(C(=O)NS(=O)(=O)CCC(F)(F)F)nn4)CC3)c2)c1 [Compound B2N093-01]
ASMS ratio (%) n = 1 [1]: 0.0%

CCOc1cccc(-c2cc(OC)c(CN3CCN(c4ccc(C(=O)NS(=O)(=O)C(C)(C)C)nn4)CC3)c(OC)c2)c1 [Compound B2L085-01, N-tert-Butylsulfonyl-6-[4-[[4-(3-ethoxyphenyl)-2,6-dimethoxyphenyl]methyl]piperazin-1-yl]pyridazine-3-carboxamide]
ASMS ratio (%) n = 1 [1]: 0.0% | ASMS ratio (%) n = 2 [2]: 0.0%

CCOc1cccc(-c2cc(OC)c(CN3CCN(c4ccc(C(=O)NS(=O)(=O)CCC(F)(F)F)nn4)CC3)c(OC)c2)c1 [Compound B2N085-01, 6-[4-[[4-(3-Ethoxyphenyl)-2,6-dimethoxyphenyl]methyl]piperazin-1-yl]-N-(3,3,3-trifluoropropylsulfonyl)pyridazine-3-carboxamide]
ASMS ratio (%) n = 1 [1]: 0.0% | ASMS ratio (%) n = 2 [2]: 0.0%

CCCNC(=O)c1ccc(N2CCN(C(C)c3ccc(-c4cccc(OCC)c4)cc3)CC2)cc1 (stereo not drawn) [Compound B1M097-01]
ASMS ratio (%) n = 1 [5]: 1.1% | ASMS ratio (%) n = 2 [6]: 0.3%

CCCNC(=O)c1ccc(N2CCN(C(=O)c3ccc(-c4cccc(OCC)c4)c(C)c3)CC2)cc1 [Compound B1M025-01]
ASMS ratio (%) n = 1 [5]: 3.6% | ASMS ratio (%) n = 2 [6]: −1.2%

CCOc1cncc(-c2cc(CN3CCN(c4ccc(C(=O)NS(=O)(=O)c5ccc(NCCSc6ccccc6)c(C(F)(F)F)c5)nn4)CC3)cc(C(F)(F)F)c2)c1 [Compound B2R088-01, 6-[4-[[3-(5-Ethoxypyridin-3-yl)-5-(trifluoromethyl)phenyl]methyl]piperazin-1-yl]-N-[4-(2-phenylsulfanylethylamino)-3-(trifluoromethyl)phenyl]sulfonylpyridazine-3-carboxamide]
ASMS ratio (%) n = 1 [1]: 35.3% | ASMS ratio (%) n = 2 [2]: 13.1%

CCOc1cccc(-c2ccc(C(=O)N3CCN(c4ccc(C(=O)NS(=O)(=O)C(C)(C)C)cc4)CC3)c3ccccc23)c1 [Compound B2L035-01, N-tert-Butylsulfonyl-4-[4-[4-(3-ethoxyphenyl)naphthalene-1-carbonyl]piperazin-1-yl]benzamide]
ASMS ratio (%) n = 1 [3]: 0.0%
